Like-named read-outs stand apart in the source and are kept apart here.
How the values were obtained:
[1] = test system: HCV replicon (genotype 1b) in Huh7 cell line ET; assay: microbe, parasite or virus in culture; format: cell-based, HCV genotype 1b; conditions: Hepatitis C virus
[2] = test system: HCV sub-genomic replicon of genotype 1a in replicon cell line W11.8; assay: microbe, parasite or virus in culture; format: cell-based, HCV genotype 1a; conditions: Hepatitis C virus
Text: This procedure below describes the HCV replicon assay using a Huh7 hepatoma cell line harboring a highly cell culture-adapted replicon (genotype 1b) (hereafter named cell line ET). The ET cells contained the highly cell culture-adapted replicon I389luc-ubi-neo/NS3-3′/5.1 construct that carried, in addition to the neomycin gene, an integrated copy to the firefly luciferase gene (Krieger, N; Lohmann, V; Bartenschlager, R. Enhancement of hepatitis C virus RNA replication by cell culture-adaptive mutations. J. Virol. 2001, 75, 4614-4624). A replicon cell line W11.8, containing the 1a genotype of HCV was also used. These two cell lines (genotype 1b and 1a) allowed measurement of RNA replication and translation by measuring luciferase activity (against genotype 1b) or by measuring the NS5A level using the ELISA assay (against genotype 1a). […] ET cell lines were maintained in cultures at a sub-confluent level (<85%). The culture media used for cell passaging consisted of DMEM (Gibco BRL Laboratories, Mississauga, ON, Canada) supplemented with 10% fetal bovine serum with 1% penicilin/streptomycin, 1% glutamine, 1% sodium pyruvate, 1% non-essential amino acids, and 180 µg/ml of G418 final concentration.
Replicon cell lines W11.8 containing a sub-genomic replicon of genotype 1a was used for the HCV Replicon Cell-Based detection using the ELISA. The RNA replication in presence of different drug concentrations was indirectly measured in these cell lines by the level of NS5A protein content upon drug treatment for four days. The NS5A is a non-structural protein of HCV and is used as marker of HCV replication in this assay.
For the treatment of the cells with the testing drug, Culture medium was removed from the 175 cm^2 T-flask by aspiration. Cell monolayer was rinsed with 10-20 mL of PBS 1× at room temperature. PBS was removed by aspiration. Cells were trypsinized using 3 mL of Trypsin (0.25%)/EDTA (0.1%) solution. Flasks were incubated at 37° C. (incubator) for 7 minutes. Complete medium (9 mL) without G418 is then added. Cell clumps were disrupted by pipetting up and down several times.
The cell suspension was then transferred to a 50 mL Falcon polypropylene tube. Cells were then counted several times using the haemocytometer. Cells were diluted at 50,000 cells/mL with complete DMEM without G418, then transferred into a sterile reservoir. Using a multichannel pipet, approximately 5,000 viable cells (100 μL) were plated per well in a white opaque 96-well microtiter plate. After an incubation period of 2-4 hours at 37° C. in a 5% CO2 incubator, compounds were added at various concentrations.
Drugs were resuspended in DMSO at a stock concentration of 100 mM or 10 mM. […] Then, drugs were diluted at twice the final concentration in the same medium (without G418) described earlier, in sterile 96-deep well plate and according to a particular template (see Appendix). One volume (100 μL) of each drug dilution was then added to each well that contains cells.
Sixteen wells were used as control (0% inhibition) without drug. Eight wells were used as background control (100% inhibition) containing 2 μM (final concentration) of the reference compound. […] Values from 100% inhibited wells were averaged and used as the background value. Cells are further incubated for 4 days at 37° C. in a 5% CO2 incubator.
For the measurement of NS5A protein content, following the incubation time of four days, the media was throwed into an appropriate waste container by inverting the plate. Any residual liquid was removed by tapping gently on absorbent paper several times. The plates were then washed once with 150 μL of PBS per well, and then incubated for 5 minutes at room temperature on a shaker (500 rpm).

[3] = [3H]Thymidine incorporation assay (cell toxicity); conditions: human
[4] = Huh-7, 96 h, read-out: HCV-Replicon (Luci-ET)-1b_IC50
[5] = W11.8, 96 h, read-out: HCV-Replicon-ELISA-1a IC50
[6] = Huh-7, read-out: HCV-Replicon-(Luci-ET) 1b_IC50
[7] = W11.8, read-out: HCV-Replicon-ELISA-1a IC50

## CC(C)(C)C#Cc1cc(N(C(=O)[C@H]2CC[C@H](C)CC2)[C@H]2CCN(CCO)C2=O)c(C(=O)O)s1 [Compound 139, 5-(3,3-Dimethylbut-1-ynyl)-3-[[(3S)-1-(2-hydroxyethyl)-2-oxo-pyrrolidin-3-yl]-(trans-4-methylcyclohexanecarbonyl)amino]thiophene-2-carboxylic acid]
[1]; [4]
  IC50: < 0.1 µM
[2]; [5]
  IC50: < 0.1 µM
[3]
  CC50 at 72 h: > 100 µM

## COC[C@@H](C(=O)N1CCCC1)N(C(=O)C1CCC(C)CC1)c1cc(C#CC(C)(C)C)sc1C(=O)O (some centres unmarked) [Compound 35]
[1]; [6]
  IC50: < 0.1 µM
[2]; [7]
  IC50: < 0.1 µM
[3]
  CC50 at 72 h: 10 to 100 µM

## CC1CCC(C(=O)N(CCC(=O)N(C)C)c2cc(C#CC(C)(C)C)sc2C(=O)O)CC1 (centres unmarked) [Compound 98]
[1]; [6]
  IC50: < 0.1 µM
[2]; [7]
  IC50: 0.1 to 1 µM
[3]
  CC50 at 72 h: > 100 µM

## CC(C)(C)C#Cc1cc(N(C(=O)[C@H]2CC[C@H](C)CC2)[C@H]2CCN([C@H]3CCOC3)C2=O)c(C(=O)O)s1 [Compound 156, 5-(3,3-Dimethylbut-1-ynyl)-3-[(trans-4-methylcyclohexanecaronyl)-[(3S)-2-oxo-1-[(3S)-tetrahydrofuran-3-yl]pyrrolidin-3-yl]amino]thiophene-2-carboxylic acid]
[1]; [4]
  IC50: < 0.1 µM
[2]; [5]
  IC50: 0.004 µM

## CC1CCC(C(=O)N(c2cc(C#CC(C)(C)C)sc2C(=O)O)[C@H]2CCCCN(C)C2=O)CC1 (stereo partly drawn) [Compound 95, 5-(3,3-dimethylbut-1-yn-1-yl)-3-(4-methyl-N—((S)-1-methyl-2-oxoazepan-3-yl)cyclohexanecarboxamido)thiophene-2-carboxylic acid]
[1]; [6]
  IC50: < 0.1 µM
[2]; [7]
  IC50: < 0.1 µM
[3]
  CC50 at 72 h: 10 to 100 µM

## CCN(CC)C(=O)CN(c1cc(C#CC(C)(C)C)sc1C(=O)O)C(=O)[C@H]1CC[C@H](C)CC1 [Compound 17]
[1]; [6]
  IC50: < 0.1 µM
[2]; [7]
  IC50: < 0.1 µM
[3]
  CC50 at 72 h: > 100 µM

## CN(C)C(=O)CN(C(=O)c1ccc(Cl)cc1Cl)c1cc(C#CC(C)(C)C)sc1C(=O)O [Compound 4, 3-[(2,4-Dichloro-benzoyl)-dimethylcarbamoylmethyl-amino]-5-(3,3-dimethyl-but-1-ynyl)-thiophene-2-carboxylic acid]
[1]; [6]
  IC50: < 0.1 µM
[2]; [7]
  IC50: 0.1 to 1 µM
[3]
  CC50 at 72 h: 10 to 100 µM

## CC(C)N1CC[C@H](N(c2cc(C#CC(C)(C)C)sc2C(=O)O)C(=O)[C@H]2CC[C@H](C)CC2)C1=O [Compound 142, 5-(3,3-dimethylbut-1-ynyl)-3-[[(3S)-1-isopropyl-2-oxo-pyrrolidin-3-yl]-(trans-4-methylcyclohexanecarbonyl)amino]thiophene-2-carboxylic acid]
[1]; [4]
  IC50: < 0.1 µM
[2]; [5]
  IC50: < 0.1 µM
[3]
  CC50 at 72 h: 10 to 100 µM

## CC(C)N1CCC[C@H](N(c2cc(C#CC(C)(C)C)sc2C(=O)O)C(=O)[C@H]2CC[C@H](C)CC2)C1=O [Compound 149, (S)-5-(3,3-Dimethylbut-1-ynyl)-3-((trans)-4-methyl-N-(1-isopropyl-2-oxopiperidin-3-yl)cyclohexanecarboxamido)thiophene-2-carboxylic acid]
[1]; [4]
  IC50: < 0.1 µM
[2]; [5]
  IC50: < 0.1 µM
[3]
  CC50 at 72 h: 10 to 100 µM

## CC(C)(C)C#Cc1cc(N(CC(=O)N2CCOCC2)C(=O)[C@H]2CC[C@H](C)CC2)c(C(=O)O)s1 [Compound 14]
[1]; [6]
  IC50: < 0.1 µM
[2]; [7]
  IC50: < 0.1 µM
[3]
  CC50 at 72 h: > 100 µM

## CC[C@@H](C(=O)N1C[C@@H]2C[C@H]1CO2)N(c1cc(C#CC(C)(C)C)sc1C(=O)O)C(=O)[C@H]1CC[C@H](C)CC1 [Compound 94]
[1]; [6]
  IC50: < 0.1 µM
[2]; [7]
  IC50: < 0.1 µM
[3]
  CC50 at 72 h: > 100 µM

## CC[C@@H](C(=O)N(C)C)N(c1cc(C#CC(C)(C)C)sc1C(=O)O)C(=O)[C@H]1CC[C@H](C)CC1 [Compound 13]
[1]; [6]
  IC50: < 0.1 µM
[2]; [7]
  IC50: < 0.1 µM
[3]
  CC50 at 72 h: > 100 µM

## COCC(C(=O)N(C)C)N(C(=O)C1CCC(C)CC1)c1cc(C#CC(C)C)sc1C(=O)O (centres unmarked) [Compound 16]
[1]; [6]
  IC50: < 0.1 µM
[2]; [7]
  IC50: < 0.1 µM
[3]
  CC50 at 72 h: > 100 µM

## C[C@@H](CN(c1cc(C#CC(C)(C)C)sc1C(=O)O)C(=O)[C@H]1CC[C@H](C)CC1)C(=O)N1CCOCC1 [Compound 108, 5-(3,3-Dimethylbut-1-ynyl)-3-[(trans-4-methylcyclohexanecarbonyl)-[(2S)-2-methyl-3-morpholino-3-oxo-propyl]amino]thiophene-2-carboxylic acid]
[1]; [6]
  IC50: < 0.1 µM
[2]; [7]
  IC50: < 0.1 µM
[3]
  CC50 at 72 h: > 100 µM

## CCN1CCCC[C@H](N(c2cc(C#CC(C)(C)C)sc2C(=O)O)C(=O)[C@H]2CC[C@H](C)CC2)C1=O [Compound 134, (S)-5-(3,3-Dimethylbut-1-ynyl)-3-((trans)-4-methyl-N-(1-ethyl-2-oxoazepan-3-yl)cyclohexanecarboxamido)thiophene-2-carboxylic acid]
[1]; [4]
  IC50: < 0.1 µM
[2]; [5]
  IC50: < 0.1 µM
[3]
  CC50 at 72 h: 10 to 100 µM

## CC(C)(C)C#Cc1cc(N(CC(=O)N2CCCC2)C(=O)[C@H]2CC[C@H](C)CC2)c(C(=O)O)s1 [Compound 6, 5-(3,3-Dimethyl-but-1-ynyl)-3-[(trans-4-methyl-cyclohexanecarbonyl)-(2-oxo-2-pyrrolidin-1-yl-ethyl)-amino]-thiophene-2-carboxylic acid]
[1]; [6]
  IC50: < 0.1 µM
[2]; [7]
  IC50: < 0.1 µM
[3]
  CC50 at 72 h: > 100 µM

## CC1CCC(C(=O)N(c2cc(C#CC(C)(C)C)sc2C(=O)O)[C@H]2CCN(C)C2=O)CC1 (single isomer, unassigned) [Compound 91]
[1]; [6]
  IC50: < 0.1 µM
[2]; [7]
  IC50: < 0.1 µM
[3]
  CC50 at 72 h: > 100 µM

## COCC(C(=O)N(C)C)N(C(=O)C1CCC(C)CC1)c1cc(C#CC(C)(C)C)sc1C(=O)O (single isomer, unassigned) [Compound 21]
[1]; [6]
  IC50: < 0.1 µM
[2]; [7]
  IC50: < 0.1 µM
[3]
  CC50 at 72 h: > 100 µM

## COCC[C@@H](C(=O)N1CCOCC1)N(C(=O)C1CCC(C)CC1)c1cc(C#CC(C)(C)C)sc1C(=O)O (some centres unmarked) [Compound 61]
[1]; [6]
  IC50: < 0.1 µM
[2]; [7]
  IC50: < 0.1 µM
[3]
  CC50 at 72 h: > 100 µM

## CC[C@@H](C(=O)N1CC2CC1CO2)N(c1cc(C#CC(C)(C)C)sc1C(=O)O)C(=O)[C@H]1CC[C@H](C)CC1 (some centres unmarked) [Compound 78]
[1]; [6]
  IC50: < 0.1 µM
[2]; [7]
  IC50: < 0.1 µM
[3]
  CC50 at 72 h: > 100 µM

## COC[C@@H](C(=O)N1CCOCC1)N(C(=O)C1CCC(C)CC1)c1cc(C#CC(C)(C)C)sc1C(=O)O (some centres unmarked) [Compound 23]
[1]; [6]
  IC50: < 0.1 µM
[2]; [7]
  IC50: < 0.1 µM
[3]
  CC50 at 72 h: > 100 µM

## COCCN1CC[C@H](N(c2cc(C#CC(C)(C)C)sc2C(=O)O)C(=O)[C@H]2CC[C@H](C)CC2)C1=O [Compound 133, 5-(3,3-Dimethylbut-1-ynyl)-3-[[(3S)-1-(2-methoxyethyl)-2-oxo-pyrrolidin-3-yl]-(trans-4-methylcyclohexanecarbonyl)amino]thiophene-2-carboxylic acid]
[1]; [4]
  IC50: < 0.1 µM
[2]; [5]
  IC50: < 0.1 µM
[3]
  CC50 at 72 h: > 100 µM

## CCN1CCC[C@H](N(c2cc(C#CC(C)(C)C)sc2C(=O)O)C(=O)[C@H]2CC[C@H](C)CC2)C1=O [Compound 148, (S)-5-(3,3-Dimethylbut-1-ynyl)-3-((trans)-4-methyl-N-(1-ethyl-2-oxopiperidin-3-yl)cyclohexanecarboxamido)thiophene-2-carboxylic acid]
[1]; [4]
  IC50: < 0.1 µM
[2]; [5]
  IC50: < 0.1 µM
[3]
  CC50 at 72 h: > 100 µM

## CN(C)C(=O)CN(c1cc(C#CC(C)(C)C)sc1C(=O)O)C(=O)[C@H]1CC[C@H](C)CC1 [Compound 5, 5-(3,3-Dimethyl-but-1-ynyl)-3-[dimethylcarbamoylmethyl-(trans-4-methyl-cyclohexanecarbonyl)-amino]-thiophene-2-carboxylic acid]
[1]; [6]
  IC50: < 0.1 µM
[2]; [7]
  IC50: < 0.1 µM
[3]
  CC50 at 72 h: > 100 µM
